Source: US11712430B2, “Formulated cannabis oil powder by nanoemulsification, methods of producing and uses thereof” (KARNAK TECHNOLOGIES, LLC, priority 2018, dated 2023)

Assay: Complete dissolution of agents to obtain the aqueous phase
Format: physicochemical
Conditions: as in Example 1, Stage 1
Procedure: 0.25 gr ammonium glycyrrhizinate, (Sigma, 50531-50G, cas: 53956-04-0), 2 gr Maltodextrin, (Sigma, 419699-500G, cas: 9050-36-6), 2 gr sucrose, (Sigma, 59378-500G, cas: 57-50-1) and 14.3 gr triple distilled water (TDW) were mixed using a magnetic stirrer for 10 min at 35-40° C. until a complete dissolution and acquisition of an aqueous solution.
It should be noted that among the various selected agents used for the preparation of the various formulations of the invention so far, cyclodextrin was proven to be incompatible in terms of a complete dissolution to obtain the aqueous phase as in Example 1, Stage 1.

For cyclodextrin, the “compatibility in terms of a complete dissolution to obtain the aqueous phase” value was “incompatible”.
